For 13 molecules, IC50 results are on record in US20260070945A1, “MACROCYCLIC IMMUNOMODULATORS” (Bristol-Myers Squibb Company, priority 2022, published 2026).

Each structure is given as a SMILES string. pIC50: −log10 of the molar value. Where a SMILES comes first, the peptide text is derived from it. Bridges are numbered along the chain shown (N, C = ends). [ ]: non-standard residue; d: D form. The star is where a group is joined. ξ: configuration not given here. Phe(4-COOH) = N[C@@H](Cc1ccc(C(=O)O)cc1)C(=O)O; Bip = N[C@@H](Cc1ccc(-c2ccccc2)cc1)C(=O)O; Phe(3-Me) = Cc1cccc(C[C@H](N)C(=O)O)c1; Val(3-OH) = CC(C)(O)[C@H](N)C(=O)O; Cha = N[C@@H](CC1CCCCC1)C(=O)O; Cit = NC(=O)NCCC[C@H](N)C(=O)O; Thr(3ξ) = CC(O)[C@H](N)C(=O)O; Carboxymethyl = O=C(O)C*; NMeA = CN[C@@H](C)C(=O)O; Aun = NCCCCCCCCCCC(=O)O; Dab = NCC[C@H](N)C(=O)O; AEEA = NCCOCCOCC(=O)O; Piv = CC(C)(C)C(=O)*

T1 sequence (Q15116 25-288): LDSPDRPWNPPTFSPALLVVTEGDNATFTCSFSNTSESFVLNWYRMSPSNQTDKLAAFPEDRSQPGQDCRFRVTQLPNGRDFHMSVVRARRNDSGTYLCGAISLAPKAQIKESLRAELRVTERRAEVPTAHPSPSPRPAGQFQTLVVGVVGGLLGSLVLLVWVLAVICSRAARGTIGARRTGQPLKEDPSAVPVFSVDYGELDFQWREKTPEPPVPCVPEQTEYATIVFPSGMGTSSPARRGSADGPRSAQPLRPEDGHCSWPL

The first test concerns the target T1, PD-1/PD-L1 interaction (PE-labeled human PD-L1-Ig binding to Jurkat cell line over-expressing human PD-1) (Homo sapiens, UniProt Q15116).
T1 construct: expressed in transfected cells; host or cells: Jurkat
Put plainly: Jurkat-PD-1 Cell Binding High-Content Screening Assay (CBA). Conditions: Jurkat-hPD-1 cells, PE-labeled PD-L1-Ig 20 nM final; read-out: Jurkat HPD1 PDL1 IC50. The essentials: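 Binding of 20 nM (final) PE-tagged PD-L1-Ig to compound-pretreated Jurkat-hPD-1 cells was measured by high-content imaging after 1 h. Pretreatment ran 2 h at 37 °C in DMEM with 10% fetal calf serum.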
As to `CC(C)C[C@@H]1NC(=O)[C@H](Cc2c[nH]c3ccccc23)NC(=O)[C@H](CC(=O)O)NC(=O)[C@H](Cc2ccc(OCC(=O)O)cc2)NC(=O)[C@H](Cc2ccc(OCC(=O)O)cc2)NC(=O)CSC[C@@H](C(=O)NCCOCCOCC(=O)NCCCCCCCCCCC(=O)O)NC(=O)[C@H](CO)NC(=O)[C@H](C(C)(C)O)NC(=O)[C@H](CC2CCCCC2)NC(=O)[C@H](CCN)NC(=O)[C@@H](CC(C)C)NC(=O)[C@H](C)N(C)C(=O)[C@H](C(C)C)NC(=O)[C@H](Cc2ccc(-c3ccccc3)cc2)NC1=O` [Example 2444] ({CH2CO}-Y(Carboxymethyl)Y(Carboxymethyl)DWL[Bip]V[NMeA][dL][Dab][Cha][Val(3-OH)]SC[AEEA][Aun]-OH; thioether N-14), the negative-log IC50 (pIC50) is 7.39.

Regarding `CC(C)C[C@@H]1NC(=O)[C@H](Cc2c[nH]c3ccccc23)NC(=O)[C@H](CC(=O)O)NC(=O)[C@H](Cc2ccc(OCC(=O)O)cc2)NC(=O)[C@H](Cc2ccc(OCC(=O)O)cc2)NC(=O)CSC[C@@H](C(=O)NCCOCCOCC(=O)NCCCCCCCCCCC(=O)O)NC(=O)[C@H](CO)NC(=O)[C@H](Cc2cnc[nH]2)NC(=O)[C@H](CC2CCCCC2)NC(=O)[C@H](CCN)NC(=O)[C@@H](CC(C)C)NC(=O)[C@H](C)N(C)C(=O)[C@H](C(C)C)NC(=O)[C@H](Cc2ccc(-c3ccccc3)cc2)NC1=O` [Example 2445] ({CH2CO}-Y(Carboxymethyl)Y(Carboxymethyl)DWL[Bip]V[NMeA][dL][Dab][Cha]HSC[AEEA][Aun]-OH; thioether N-14), the pIC50 is 7.33.

For the molecule `CC(C)C[C@@H]1NC(=O)[C@H](Cc2c[nH]c3ccccc23)NC(=O)[C@H](CC(=O)O)NC(=O)[C@H](Cc2ccc(OCC(=O)O)cc2)NC(=O)[C@H](Cc2ccc(OCC(=O)O)cc2)NC(=O)CSC[C@@H](C(=O)NCCOCCOCC(=O)NCCCCCCCCCCC(=O)O)NC(=O)[C@H](CO)NC(=O)[C@H](C(C)(C)O)NC(=O)[C@H](CC2CCCCC2)NC(=O)[C@H](CC(N)=O)NC(=O)[C@@H](CC(C)C)NC(=O)[C@H](C)N(C)C(=O)[C@H](C(C)C)NC(=O)[C@H](Cc2ccc(-c3ccccc3)cc2)NC1=O` [Example 2446] ({CH2CO}-Y(Carboxymethyl)Y(Carboxymethyl)DWL[Bip]V[NMeA][dL]N[Cha][Val(3-OH)]SC[AEEA][Aun]-OH; thioether N-14), the negative-log IC50 (pIC50) is 6.62.

Regarding `CC(=O)NCC[C@@H]1NC(=O)[C@H](C(C)(C)O)NC(=O)[C@H](CC2CCCCC2)NC(=O)[C@H](CCN)NC(=O)[C@@H](CC(C)C)NC(=O)[C@H](C)N(C)C(=O)[C@H](C(C)C)NC(=O)[C@H](Cc2ccc(-c3ccccc3)cc2)NC(=O)[C@H](CC(C)C)NC(=O)[C@H](Cc2c[nH]c3ccccc23)NC(=O)[C@H](CC(=O)O)NC(=O)[C@H](Cc2ccc(OCC(=O)O)cc2)NC(=O)[C@H](Cc2ccc(OCC(=O)O)cc2)NC(=O)CSC[C@@H](C(=O)NCCOCCOCC(=O)NCCCCCCCCCCC(=O)O)NC1=O` [Example 2447] ({CH2CO}-Y(Carboxymethyl)Y(Carboxymethyl)DWL[Bip]V[NMeA][dL][Dab][Cha][Val(3-OH)][Dab](Ac)C[AEEA][Aun]-OH; thioether N-14), the negative-log IC50 (pIC50) is 7.42.

Take `CC(C)C[C@@H]1NC(=O)[C@H](Cc2c[nH]c3ccccc23)NC(=O)[C@H](CC(=O)O)NC(=O)[C@H](Cc2ccc(OCC(=O)O)cc2)NC(=O)[C@H](C(C)O)NC(=O)CSC[C@@H](C(=O)NCCOCCOCC(=O)NCCCCCCCCCCC(=O)O)NC(=O)[C@H](CO)NC(=O)[C@H](C(C)(C)O)NC(=O)[C@H](CC2CCCCC2)NC(=O)[C@H](CCC(=O)O)NC(=O)[C@@H](CC(C)C)NC(=O)[C@H](C)N(C)C(=O)[C@H](C(C)C)NC(=O)[C@H](Cc2ccc(-c3ccccc3)cc2)NC1=O` (stereo partly drawn) [Example 2448] ({CH2CO}-[Thr(3ξ)]Y(Carboxymethyl)DWL[Bip]V[NMeA][dL]E[Cha][Val(3-OH)]SC[AEEA][Aun]-OH; thioether N-14): the pIC50 was 6.89.

As for `CC(C)C[C@@H]1NC(=O)[C@H](Cc2c[nH]c3ccccc23)NC(=O)[C@H](CC(=O)O)NC(=O)[C@H](Cc2ccc(OCC(=O)O)cc2)NC(=O)[C@H](Cc2ccc(OCC(=O)O)cc2)NC(=O)CSC[C@@H](C(=O)NCCOCCOCC(=O)NCCCCCCCCCCC(=O)O)NC(=O)[C@H](CO)NC(=O)[C@H](Cc2cnc[nH]2)NC(=O)[C@H](CC2CCCCC2)NC(=O)[C@H](CCC(=O)O)NC(=O)[C@@H](CC(C)C)NC(=O)[C@H](C)N(C)C(=O)[C@H](C(C)C)NC(=O)[C@H](Cc2ccc(-c3ccccc3)cc2)NC1=O` [Example 2449] ({CH2CO}-Y(Carboxymethyl)Y(Carboxymethyl)DWL[Bip]V[NMeA][dL]E[Cha]HSC[AEEA][Aun]-OH; thioether N-14), the negative-log IC50 (pIC50) is 6.57.

On to `CC(=O)NCCCC[C@@H]1NC(=O)[C@H](Cc2ccc(-c3ccccc3)cc2)NC(=O)[C@H](Cc2ccc(O)cc2)NC(=O)[C@H](Cc2cccc(C)c2)NC(=O)[C@H](CC(=O)O)NC(=O)[C@H](Cc2ccc(OCC(=O)O)cc2)NC(=O)[C@H](C(C)O)NC(=O)CSC[C@@H](C(=O)N[C@@H](CCN)C(=O)NCCCCCCCCCCC(=O)O)NC(=O)[C@H](C(C)O)NC(=O)[C@H](C(C)C)NC(=O)[C@H](CC2CCCCC2)NC(=O)[C@H](CCN)NC(=O)[C@@H](CC(C)C)NC(=O)[C@H](C)N(C)C1=O` (stereo partly drawn) [Example 2451] ({CH2CO}-[Thr(3ξ)]Y(Carboxymethyl)D[Phe(3-Me)]Y[Bip]K(Ac)[NMeA][dL][Dab][Cha]V[Thr(3ξ)]C[Dab][Aun]-OH; thioether N-14), for which the pIC50 was 7.86.

Consider `Cc1cccc(C[C@@H]2NC(=O)[C@H](CC(=O)O)NC(=O)[C@H](Cc3ccc(OCC(=O)O)cc3)NC(=O)[C@H](C(C)O)NC(=O)CSC[C@@H](C(=O)N[C@H](CC(N)=O)C(=O)NCCCCCCCCCCC(=O)O)NC(=O)[C@H](C(C)O)NC(=O)[C@H](C(C)C)NC(=O)[C@H](CC3CCCCC3)NC(=O)[C@H](CCN)NC(=O)[C@@H](CC(C)C)NC(=O)[C@H](C)N(C)C(=O)[C@H](CCCCNC(=O)C(C)(C)C)NC(=O)[C@H](Cc3ccc(-c4ccccc4)cc3)NC(=O)[C@H](Cc3ccc(O)cc3)NC2=O)c1` (stereo partly drawn) [Example 2452] ({CH2CO}-[Thr(3ξ)]Y(Carboxymethyl)D[Phe(3-Me)]Y[Bip]K(Piv)[NMeA][dL][Dab][Cha]V[Thr(3ξ)]C[dN][Aun]-OH; thioether N-14), for which the pIC50 was 7.91.

The test is the same for the next values; noted with them: PE-labeled PD-L1-Ig 20 nM final, Jurkat-hPD-1 cells; read-out: Jurkat HPD1 PDL1 IC50.
For `CC(C)C[C@@H]1NC(=O)[C@H](Cc2c[nH]c3ccccc23)NC(=O)[C@H](CC(=O)O)NC(=O)[C@H](Cc2ccc(OCC(=O)O)cc2)NC(=O)[C@H](C(C)O)NC(=O)CSC[C@@H](C(=O)NCCOCCOCC(=O)NCCCCCCCCCCC(=O)O)NC(=O)[C@H](C(C)O)NC(=O)[C@H](C(C)C)NC(=O)[C@H](CC2CCCCC2)NC(=O)[C@H](CCN)NC(=O)[C@@H](CC(C)C)NC(=O)[C@H](C)N(C)C(=O)[C@H](CCCNC(N)=O)NC(=O)[C@H](Cc2ccc(-c3ccccc3)cc2)NC1=O` (stereo partly drawn) [Example 2437] ({CH2CO}-[Thr(3ξ)]Y(Carboxymethyl)DWL[Bip][Cit][NMeA][dL][Dab][Cha]V[Thr(3ξ)]C[AEEA][Aun]-OH; thioether N-14), the pIC50 was 7.46.

As for `CC(=O)NCCCC[C@@H]1NC(=O)[C@H](Cc2ccc(-c3ccccc3)cc2)NC(=O)[C@H](CC(C)C)NC(=O)[C@H](Cc2c[nH]c3ccccc23)NC(=O)[C@H](CC(=O)O)NC(=O)[C@H](Cc2ccc(OCC(=O)O)cc2)NC(=O)[C@H](Cc2ccc(OCC(=O)O)cc2)NC(=O)CSC[C@@H](C(=O)NCCOCCOCC(=O)NCCCCCCCCCCC(=O)O)NC(=O)[C@H](CO)NC(=O)[C@H](C(C)C)NC(=O)[C@H](CC2CCCCC2)NC(=O)[C@H](CCN)NC(=O)[C@@H](CC(C)C)NC(=O)[C@H](C)N(C)C1=O` [Example 2438] ({CH2CO}-Y(Carboxymethyl)Y(Carboxymethyl)DWL[Bip]K(Ac)[NMeA][dL][Dab][Cha]VSC[AEEA][Aun]-OH; thioether N-14), the negative-log IC50 (pIC50) is 7.77.

Take `CC(C)C[C@@H]1NC(=O)[C@H](Cc2c[nH]c3ccccc23)NC(=O)[C@H](CC(=O)O)NC(=O)[C@H](Cc2ccc(C(=O)O)cc2)NC(=O)[C@H](Cc2ccc(OCC(=O)O)cc2)NC(=O)CSC[C@@H](C(=O)NCCOCCOCC(=O)NCCCCCCCCCCC(=O)O)NC(=O)[C@H](Cc2cnc[nH]2)NC(=O)[C@H](C(C)C)NC(=O)[C@H](CC2CCCCC2)NC(=O)[C@H](CCN)NC(=O)[C@@H](CC(C)C)NC(=O)[C@H](C)N(C)C(=O)[C@H](C(C)C)NC(=O)[C@H](Cc2ccc(-c3ccccc3)cc2)NC1=O` [Example 2441] ({CH2CO}-Y(Carboxymethyl)[Phe(4-COOH)]DWL[Bip]V[NMeA][dL][Dab][Cha]VHC[AEEA][Aun]-OH; thioether N-14): the pIC50 is 7.47.

Consider `CC(C)C[C@@H]1NC(=O)[C@H](Cc2c[nH]c3ccccc23)NC(=O)[C@H](CC(=O)O)NC(=O)[C@H](Cc2ccc(OCC(=O)O)cc2)NC(=O)[C@H](Cc2ccc(OCC(=O)O)cc2)NC(=O)CSC[C@@H](C(=O)NCCOCCOCC(=O)NCCCCCCCCCCC(=O)O)NC(=O)[C@H](Cc2c[nH]cn2)NC(=O)[C@H](C(C)C)NC(=O)[C@H](CC2CCCCC2)NC(=O)[C@H](CCN)NC(=O)[C@@H](CC(C)C)NC(=O)[C@H](C)N(C)C(=O)[C@H](C(C)C)NC(=O)[C@H](Cc2ccc(-c3ccccc3)cc2)NC1=O` [Example 2442] ({CH2CO}-Y(Carboxymethyl)Y(Carboxymethyl)DWL[Bip]V[NMeA][dL][Dab][Cha]VHC[AEEA][Aun]-OH; thioether N-14), for which the pIC50 was 7.42.

As to `CC(C)C[C@@H]1NC(=O)[C@H](Cc2c[nH]c3ccccc23)NC(=O)[C@H](CC(=O)O)NC(=O)[C@H](Cc2ccc(C(=O)O)cc2)NC(=O)[C@H](Cc2ccc(OCC(=O)O)cc2)NC(=O)CSC[C@@H](C(=O)NCCOCCOCC(=O)NCCCCCCCCCCC(=O)O)NC(=O)[C@H](CO)NC(=O)[C@H](C(C)(C)O)NC(=O)[C@H](CC2CCCCC2)NC(=O)[C@H](CCN)NC(=O)[C@@H](CC(C)C)NC(=O)[C@H](C)N(C)C(=O)[C@H](C(C)C)NC(=O)[C@H](Cc2ccc(-c3ccccc3)cc2)NC1=O` [Example 2443] ({CH2CO}-Y(Carboxymethyl)[Phe(4-COOH)]DWL[Bip]V[NMeA][dL][Dab][Cha][Val(3-OH)]SC[AEEA][Aun]-OH; thioether N-14), the pIC50 is 7.63.

In general, pIC50 refers to the IC50 on a negative log10 scale, so that one unit is a factor of ten.
